From patent US20230125667A1, “NOVEL TDZD ANALOGS AS AGENTS THAT DELAY, PREVENT, OR REVERSE AGE-ASSOCIATED DISEASES AND AS ANTI-CANCER AND ANTILEUKEMIC AGENTS” (United States Government as represented by the Department …, priority 2020, published 2023)

Columns and labels:
SH-SY5Y-APPSw cells = experiment: Thioflavin-T staining of amyloid-like aggregates in SH-SY5Y-APPSw cells; format: cell-based, human
Description: (§1) Several TDZD-conjugated drugs (putative GSK-3 inhibitors) were evaluated for their ability to reduce accumulation of protein aggregates, and for protection against aggregation-associated end-points in the following model systems: (i.) SH-SY5Y-APPSw, a neuroblastoma cell line expressing the Swedish mutation of Amyloid Precursor Protein (APPSw), and thus predisposed to form β-amyloid deposits; (ii.) C. elegans strain CL4176, a model of Alzheimer-like amyloidopathy that can be induced to express human Aβ1-42 in muscle, or may express it at a lower level without induction; (iii.) C. elegans strain AM141, a model of Huntington-like polyglutamine aggregation that constitutively expresses Q40::YFP (a tract of 40 glutamines fused in-frame to yellow fluorescent protein) in muscle cells and forms aggregates progressively with adult aging. The TDZD analog PNR-962 (a putative GSK-3 inhibitor) and other related compounds (not shown) were protective in all aggregation assays.
First, the effects of TDZD analogues were tested on the human neuroblastoma cell line SH-SY5Y-APPSw, a model of Alzheimer-like amyloid aggregation expressing the “Sw” mutant form of Amyloid Precursor Protein, APP. These drugs all produced significant reductions in amyloid-like aggregates, by 30-50% as quantified by thioflavin-T staining intensity (data for PNR-962 are shown in FIG. 4). Modified TDZD-8 analogues PNR-962 and BSK-179 are more anti-aggregative than TDZD-8, lowering total amyloid-staining intensity by a further 14% (data not shown).
Following previously described experimental procedures (Liu, et al. (2005). S100B-induced microglial and neuronal IL-1 expression is mediated by cell type-specific transcription factors. Journal of Neurochemistry. 92(3): 546-553), SH-SY5Y-APPSw neuronal cells expressing an aggregation-prone double mutant of amyloid precursor protein (APPSw) were cultured in DMEM plus 10% (v/v) fetal bovine serum (FBS) at 37° C. Cells were suspended in trypsin/EDTA and rinsed in PBS prior to re-plating or harvesting. […] Human neuroblastoma cells were treated with PNR962, either simultaneous with sAPPα or beginning 1 h prior to sAPPα addition (pre-treatment) in order to ascertain the protective benefits of PNR962 on protein aggregation in human neuroblastoma cell lines. A similar experimental procedure was followed to examine the effect of treatment with these analogs on non-neuronal human cells, exposing human embryonic kidney cells (HEK) that express tau-like aggregates (found in AD-associated diseases) to 0.001, 0.01, and 1-μM doses of TDZD-8 and its analogues.
To observe the protective effects of the novel TDZD analogs on protein aggregation in SY5Y-APPSw cells, using DMEM medium containing 10% fetal calf serum in […], cells were cultured at 37′C for 26 hrs allowing cells to approximately double in number. After 48 h of cell incubation in the presence of specified concentrations of drug or vehicle, cells were fixed 15 min in formaldehyde (4% v/v), washed, and stained 20 min at ˜22° C. in a dark container with 0.1% w/v Thioflavin T mixed with DAPI (1 μg/ml; Life Technologies, Grand Island, N.Y., USA). […] The intensity of aggregate/thioflavin-T fluorescence per field was quantified via an Image J plug-in developed in-house, and normalized to the number of DAPI^+ nuclei counted per field, to obtain an average intensity of aggregates per cell for each treatment.

C. elegans strain AM141 = experiment: Q40::YFP aggregates in C. elegans strain AM141; format: in vivo
Description: as §1
Fresh agar plates supporting bacterial lawns, which serve as food for C. elegans, were prepared at least 1 day ahead of use. C. elegans AM141 (forming Q40::YFP aggregates in muscle, progressively in early adulthood) were placed on these 100-mm plates. Day-4 adult worms were lysed with alkaline hypochlorite solution to obtain eggs from worms, a procedure that permits synchronization of worms in a cohort. Eggs were placed on plates spotted with different concentrations of TDZD analogues after allowing the compounds to be evenly distributed on the plates (˜1 hour after adding drugs to plates). Vehicle-only (DMSO) controls are included in each experiment, as a baseline for drug effects in experimental groups. Young-adult AM141 (day-3 adults) were transferred on alternate days onto fresh plates that contained the same doses of compounds, with fresh E. coli to prevent starvation of worms. Equal samples (n=25) were randomly picked from experimental groups and control group for microscopic imaging. Using an in-house plugin for ImageJ software (NIH), several images of AM141 were processed for aggregate count per worm. The fluorescence intensity of each aggregate (indicating the size/content of protein aggregates) was also measured. Each drug treatment was repeated multiple times to validate the results.

wild-type nematodes = experiment: Lifespan of C. elegans; format: in vivo; conditions: FIG. 8
Description: It was previously shown that several interventions that improve age-associated phenotypes also modulate lifespan (Ayyadevara et al. (2017) Antioxid Redox Signal. 27(17): 1383-1396; Ayyadevara et al. (2005) Aging Cell. 4(5): 257-271). The lifespan was assessed in C. elegans, either mock-treated or exposed to TDZD analogues. PNR-962 and BSK-179 extended the lifespan of wild-type nematodes to an identical degree, increasing the mean by roughly 25-30% (P<0.001; FIG. 8).
To obtain synchronized eggs for lifespan studies, worms were maintained for 2 generations, free of contamination and starvation. Healthy, well-fed adult worms from the 2nd generation were then lysed, and eggs placed on plates with appropriate doses of TDZD analogue PNR962, or DMSO vehicle alone (for a final concentration of 0.02% v/v DMSO). At the L4 larval stage, worms were transferred daily to fresh plates for 7 days, and thereafter on alternate days until all the worms are dead. C. elegans that moved spontaneously or responded to gentle prodding were scored as alive. For the mortality computation, worms that were lost for reasons other than natural death were censored. The methods described were adopted from previously described experimental procedures (Ayyadevara, et al. (2016) PIP3-binding proteins promote age-dependent protein aggregation and limit survival in C. elegans. Oncotarget, 7(31): 48870-48886; Bharill, et al. (2013) Extreme Depletion of PIP3 Accompanies the Increased Life Span and Stress Tolerance of PI3K-null C. elegans Mutants. Frontiers in Genetics, 4).

C. elegans = conditions: in vivo; cited from earlier work

Structure (SMILES) | further lowering of total amyloid-staining intensity relative to TDZD-8 (SH-SY5Y-APPSw cells; data not shown) | amyloid accumulation (thioflavin T stained foci) (SH-SY5Y-APPSw cells; treated for 2 days (FIG. 9)) | number of aggregation foci (C. elegans strain AM141; C. elegans model of Huntington's Disease (FIG. 7)) | reduction of total intensity of Q40::YFP aggregates (C. elegans strain AM141; FIG. 7) | lifespan (wild-type nematodes) | extension of nematode lifespan (C. elegans)
CC(=O)Oc1ccccc1C(=O)NCc1ccc(Cn2c(=O)sn(CCCl)c2=O)cc1 [BSK-179] | 14% | reduces amyloid accumulation | decreases | > 2 fold | increased | 
CC(=O)Oc1ccccc1C(=O)O [aspirin, acetylsalicylic acid, reference compound] |  |  |  |  | increased | 22%
